Biological target: GRP receptor (Rattus norvegicus, UniProt P52500)
Assay: Amylase release from rat pancreatic acini (alone or Bn-stimulated)
Type: cell-based
Design: from tissue; host or cells: dispersed pancreatic acini
Settings: for Amylase Release, analog Alone (10 μM): analog 10 μM alone, control 4 ± 1; for Amylase Release, analog Plus Bn (0.3 nM): analog 10 μM plus Bn 0.3 nM, Bn without analog 15 ± 1
Experimental: pancreatic acini or [^3 H]myo[2H]inositolloaded NMBR transfected cell
were incubated either with no additives, the somatostatin octapeptide
analog, Bn, or NMB, or a combination for 30 min at 37° C.. Amylase
release from pancreatic acini was expressed at the indicated percent of
the total cellular amylase released during the incubation. [^3 H]IP i
expressed in dpm's. To test for inhibitory effects, the effect of
somatostatin analog (10 μM) was determined on 0.3 nM Bnstimulated

Sequence of GRP receptor (P52500 whole entry): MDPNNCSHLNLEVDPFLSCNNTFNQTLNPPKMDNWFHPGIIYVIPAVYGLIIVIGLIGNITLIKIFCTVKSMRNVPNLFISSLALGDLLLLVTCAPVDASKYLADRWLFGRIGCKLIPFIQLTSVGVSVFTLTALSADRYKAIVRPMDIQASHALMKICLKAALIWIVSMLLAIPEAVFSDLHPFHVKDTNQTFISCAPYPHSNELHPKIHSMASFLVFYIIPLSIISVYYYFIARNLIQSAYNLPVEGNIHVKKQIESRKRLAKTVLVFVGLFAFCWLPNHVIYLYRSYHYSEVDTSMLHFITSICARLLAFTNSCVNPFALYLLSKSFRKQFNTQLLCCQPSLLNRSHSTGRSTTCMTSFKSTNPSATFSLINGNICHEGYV

Row | SMILES | Amylase Release, analog Alone (10 μM) [% total] | Amylase Release, analog Plus Bn (0.3 nM) [% total]
1 | C[C@H](N)C(=O)NCC(=O)N[C@H]1CSSC[C@@H](C(=O)O)NC(=O)[C@H](CO)NC(=O)[C@H]([C@@H](C)O)NC(=O)[C@H](Cc2ccccc2)NC(=O)[C@H]([C@@H](C)O)NC(=O)[C@H](CCCCN)NC(=O)[C@H](Cc2c[nH]c3ccccc23)NC(=O)[C@H](Cc2ccccc2)NC(=O)[C@H](Cc2ccccc2)NC(=O)[C@H](CC(N)=O)NC(=O)[C@H](CCCCN)NC1=O [SS-14, somatostatin-14, reference compound] | 3 ± 1 | 12 ± 1
2 | CSCC[C@H](NC(=O)[C@H](C)NC(=O)[C@@H]1CCCN1C(=O)[C@H](CC(N)=O)NC(=O)[C@H](CO)NC(=O)[C@H](CC(N)=O)NC(=O)[C@H](C)NC(=O)[C@@H](N)CO)C(=O)N[C@@H](C)C(=O)N1CCC[C@H]1C(=O)N[C@@H](CCCNC(=N)N)C(=O)N[C@@H](CCC(=O)O)C(=O)N[C@@H](CCCNC(=N)N)C(=O)N[C@@H](CCCCN)C(=O)N[C@@H](C)C(=O)NCC(=O)N[C@H]1CSSC[C@@H](C(=O)O)NC(=O)[C@H](CO)NC(=O)[C@H]([C@@H](C)O)NC(=O)[C@H](Cc2ccccc2)NC(=O)[C@H]([C@@H](C)O)NC(=O)[C@H](CCCCN)NC(=O)[C@H](Cc2c[nH]c3ccccc23)NC(=O)[C@H](Cc2ccccc2)NC(=O)[C@H](Cc2ccccc2)NC(=O)[C@H](CC(N)=O)NC(=O)[C@H](CCCCN)NC1=O [SS-28, somatostatin-28, reference compound] | 4 ± 1 | 10 ± 1
